In ChEMBL document CHEMBL1143549, “Novel 4-amino-furo[2,3-d]pyrimidines as Tie-2 and VEGFR2 dual inhibitors” (Bioorg Med Chem Lett, 2005) one finds IC50 data, which are given here for 6 compounds.

For test [1], the target named is Vascular endothelial growth factor receptor 2 (Homo sapiens, UniProt P35968). As to the kind of experiment: Inhibitory concentration against human vascular endothelial growth factor receptor 2.
In test [2] the test system is HUVEC. As to the kind of experiment: Concentration required for growth inhibition of human umbilical vein endothelial cells stimulated by VEGF. The class given is functional, cell-based.
For test [3], the system named is HFF. Put plainly: Cytotoxic concentration against HFF cells was determined. The class given is functional, cell-based. Conditions: Homo sapiens.
Test [4] concerns the target T1, Angiopoietin-1 receptor (Homo sapiens, UniProt Q02763). Put plainly: Inhibitory concentration against human tyrosine protein kinase receptor TIE-2.
The target of test [5] is T1, Angiopoietin-1 receptor. Put plainly: Concentration required to inhibit autophosphorylation of tyrosine protein kinase receptor TIE-2 transfected in 3T3 cells. The class given is functional, cell-based, NIH3T3.

T1 sequence (Q02763 whole entry): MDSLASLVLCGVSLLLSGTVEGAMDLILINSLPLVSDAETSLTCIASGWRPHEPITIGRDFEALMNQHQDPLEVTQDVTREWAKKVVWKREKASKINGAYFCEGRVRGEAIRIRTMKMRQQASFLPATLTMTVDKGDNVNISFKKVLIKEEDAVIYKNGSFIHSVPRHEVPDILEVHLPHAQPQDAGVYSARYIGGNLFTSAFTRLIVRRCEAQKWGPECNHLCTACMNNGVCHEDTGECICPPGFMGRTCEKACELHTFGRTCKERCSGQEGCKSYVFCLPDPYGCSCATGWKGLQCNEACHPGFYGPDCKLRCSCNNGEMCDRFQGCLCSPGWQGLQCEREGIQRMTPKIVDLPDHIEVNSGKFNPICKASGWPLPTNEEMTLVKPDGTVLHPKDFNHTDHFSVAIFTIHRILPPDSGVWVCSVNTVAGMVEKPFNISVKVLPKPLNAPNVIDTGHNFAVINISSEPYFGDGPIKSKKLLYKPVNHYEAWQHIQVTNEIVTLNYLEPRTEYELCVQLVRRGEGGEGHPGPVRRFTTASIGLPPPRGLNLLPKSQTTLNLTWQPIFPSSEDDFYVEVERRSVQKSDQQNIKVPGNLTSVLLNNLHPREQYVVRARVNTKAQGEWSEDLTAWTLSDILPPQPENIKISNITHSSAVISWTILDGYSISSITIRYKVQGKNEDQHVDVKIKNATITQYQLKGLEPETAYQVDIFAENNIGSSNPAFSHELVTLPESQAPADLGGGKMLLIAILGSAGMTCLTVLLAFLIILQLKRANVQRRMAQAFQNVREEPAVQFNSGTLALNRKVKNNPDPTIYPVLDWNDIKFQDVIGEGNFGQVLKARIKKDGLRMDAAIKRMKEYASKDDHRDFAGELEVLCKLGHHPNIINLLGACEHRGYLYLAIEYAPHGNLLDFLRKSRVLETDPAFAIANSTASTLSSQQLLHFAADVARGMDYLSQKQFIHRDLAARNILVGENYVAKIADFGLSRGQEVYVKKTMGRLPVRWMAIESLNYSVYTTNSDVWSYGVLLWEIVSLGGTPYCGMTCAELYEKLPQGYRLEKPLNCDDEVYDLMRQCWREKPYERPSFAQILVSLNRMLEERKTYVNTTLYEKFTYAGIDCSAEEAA
Sequence of Vascular endothelial growth factor receptor 2 (P35968 whole entry): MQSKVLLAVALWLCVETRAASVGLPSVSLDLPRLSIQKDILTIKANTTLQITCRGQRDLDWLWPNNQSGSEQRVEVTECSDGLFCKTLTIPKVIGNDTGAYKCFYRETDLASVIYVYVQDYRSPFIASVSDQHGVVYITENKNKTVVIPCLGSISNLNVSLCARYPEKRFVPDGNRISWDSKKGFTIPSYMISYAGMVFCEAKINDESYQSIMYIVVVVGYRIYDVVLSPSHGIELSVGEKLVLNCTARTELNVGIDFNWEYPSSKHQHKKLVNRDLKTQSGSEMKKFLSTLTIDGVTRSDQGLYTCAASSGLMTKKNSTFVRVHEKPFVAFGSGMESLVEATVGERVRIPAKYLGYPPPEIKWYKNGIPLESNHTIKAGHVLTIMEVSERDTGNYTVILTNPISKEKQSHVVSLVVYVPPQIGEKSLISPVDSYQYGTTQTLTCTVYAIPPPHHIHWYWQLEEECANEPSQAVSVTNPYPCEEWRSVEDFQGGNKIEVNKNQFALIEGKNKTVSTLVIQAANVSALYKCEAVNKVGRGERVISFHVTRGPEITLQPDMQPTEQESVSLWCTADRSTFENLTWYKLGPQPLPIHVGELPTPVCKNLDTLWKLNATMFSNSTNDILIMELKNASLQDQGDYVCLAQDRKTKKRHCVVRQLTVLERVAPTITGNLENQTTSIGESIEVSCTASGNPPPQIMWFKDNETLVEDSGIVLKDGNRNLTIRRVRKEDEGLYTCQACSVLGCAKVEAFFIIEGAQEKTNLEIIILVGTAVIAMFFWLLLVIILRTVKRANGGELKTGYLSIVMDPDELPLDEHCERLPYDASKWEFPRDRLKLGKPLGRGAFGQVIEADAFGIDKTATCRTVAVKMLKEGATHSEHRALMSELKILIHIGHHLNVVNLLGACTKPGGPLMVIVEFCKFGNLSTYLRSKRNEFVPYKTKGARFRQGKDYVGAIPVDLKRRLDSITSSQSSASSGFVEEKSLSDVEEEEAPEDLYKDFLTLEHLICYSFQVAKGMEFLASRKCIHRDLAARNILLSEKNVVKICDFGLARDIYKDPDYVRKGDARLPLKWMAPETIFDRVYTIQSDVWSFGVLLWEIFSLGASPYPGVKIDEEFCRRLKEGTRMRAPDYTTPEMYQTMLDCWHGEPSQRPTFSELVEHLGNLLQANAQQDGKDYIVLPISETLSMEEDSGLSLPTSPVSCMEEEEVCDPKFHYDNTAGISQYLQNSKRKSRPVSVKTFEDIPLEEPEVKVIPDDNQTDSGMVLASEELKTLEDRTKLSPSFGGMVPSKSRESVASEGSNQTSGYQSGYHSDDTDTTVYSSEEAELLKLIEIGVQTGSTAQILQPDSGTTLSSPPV

Consider `COc1ccc(-c2c(-c3ccc(Cl)c(Cl)c3)oc3ncnc(N)c23)cc1`, for which the IC50 (as a rule, the concentration needed to halve the response being measured) in test [1] is more than 20 µM.

In the case of `COc1ccc(-c2oc3ncnc(N)c3c2-c2ccc(NC(=O)Nc3cc(C(F)(F)F)ccc3F)cc2)cc1`, the IC50 in test [2] is 0.045 µM; in test [3], 0.79 µM; in test [4] it was 0.002 µM; in test [1], 0.003 µM; in test [5], 0.0063 µM.

As to `COc1ccc(-c2oc3ncnc(N)c3c2-c2ccc(OC)cc2)cc1`, the IC50 in test [4] came out at 1 µM; in test [1], 1.12 µM.

Compound `COc1ccc(-c2oc3ncnc(N)c3c2-c2cccc(NC(C)=O)c2)cc1` gave an IC50 in test [4] of more than 20 µM.

As to `COc1ccc(-c2coc3ncnc(N)c23)cc1` [GW642125X], the IC50 in test [4] was more than 20 µM; in test [1], 5.5 µM.

For the compound `COc1ccc(-c2cc3c(N)ncnc3o2)cc1` [GW642138X], the IC50 is more than 20 µM in test [4] and more than 17 µM in test [1].
